Converted amounts (≈) assume the structure as drawn. “And” between values parts separate entries of the source, which are not always exact repeats. Identical values can stand only once. Blank lines part the entries; values can stand above or below the molecule they belong to.
Columns and labels:
Test in all cases: ≥ marks a high value that may be exact or a test limit, other limits are often not marked, values filed in µg/mL are converted to µM
[1] = test system: Bacillus cereus CMCC 6303
[2] = test system: Cronobacter sakazakii ATCC 29544
[3] = test system: Escherichia coli UB1005
[4] = test system: Listeria monocytogenes CMCC 54004
[5] = test system: Salmonella enterica subsp. enterica CMCC 47020
[6] = test system: Salmonella enterica subsp. enterica serovar Pullorum C79-13
[7] = test system: Salmonella enterica subsp. enterica serovar Typhi CMCC 50071
[8] = test system: Salmonella enterica subsp. enterica serovar Typhimurium ATCC 14028
[9] = test system: Salmonella enterica subsp. enterica serovar Typhimurium C77-31
[10] = test system: Staphylococcus aureus ATCC 25923
[11] = test system: Staphylococcus aureus CMCC 26074
[12] = test system: Candida albicans ATCC 24433
[13] = test system: Candida parapsilosis ATCC 22019
[14] = test system: Escherichia coli
[15] = test system: Staphylococcus aureus
[16] = test system: Trichophyton rubrum ATCC 28189
[17] = test system: Candida albicans NCPE 1467
[18] = test system: Chromobacterium violaceum ATCC 12472
[19] = test system: Enterococcus faecalis NCTC 12697
[20] = test system: Escherichia coli NCTC 10418
[21] = test system: Pseudomonas aeruginosa ATCC 27853
[22] = test system: Staphylococcus aureus ATCC 43300
[23] = test system: Staphylococcus aureus NCTC 10788
[24] = test system: Staphylococcus aureus NCTC 12493
[25] = test system: Acinetobacter baumannii ATCC BAA-1605
[26] = test system: Enterococcus faecium ATCC 700221
[27] = test system: Escherichia coli ATCC 25922
[28] = test system: Klebsiella pneumoniae ATCC 700603
[29] = test system: Staphylococcus aureus ATCC 33591
[30] = test system: Acinetobacter baumannii
[31] = test system: Enterobacter cloacae
[32] = test system: Escherichia coli BL21
[33] = test system: Escherichia coli KpC+001812446
[34] = test system: Klebsiella pneumoniae ATCC 13883
[35] = test system: Klebsiella pneumoniae KpC+001825971
[36] = test system: Pseudomonas aeruginosa PA14
[37] = test system: Pseudomonas aeruginosa PAO1
[38] = test system: Staphylococcus aureus ATCC 12600
[39] = test system: Staphylococcus aureus MR
[40] = test system: Candida albicans SC5314
[41] = test system: Cryptococcus neoformans var. grubii H99
[42] = test system: Klebsiella pneumoniae
[43] = test system: Pseudomonas aeruginosa
[44] = test system: Pseudomonas syringae
[45] = test system: Staphylococcus aureus ATCC 29213
[46] = test system: Streptococcus pneumoniae TIGR4
[47] = test system: Streptococcus pyogenes AP1
[48] = test system: Xanthomonas campestris pv. campestris
[49] = test system: Xanthomonas oryzae pv. oryzae
[50] = test system: Xanthomonas vesicatoria

MIC [1]: 16 µM (≈ 26.2 µg/mL)
MIC [2]: ≥ 32 µM
MIC [3]: 8 µM (≈ 13.1 µg/mL)
MIC [4]: 2 µM (≈ 3.27 µg/mL)
MIC [5]: ≥ 64 µM
MIC [6]: 8 µM (≈ 13.1 µg/mL)
MIC [7]: 8 µM (≈ 13.1 µg/mL)
MIC [8]: 32 µM (≈ 52.4 µg/mL)
MIC [9]: ≥ 32 µM
MIC [10]: 128 µM (≈ 209 µg/mL)
MIC [11]: ≥ 256 µM
SMILES: CC[C@H](C)[C@H](NC(=O)[C@H](CCCN=C(N)N)NC(=O)[C@H](Cc1c[nH]c2ccccc12)NC(=O)[C@H](CCCCN)NC(=O)[C@@H](N)CCCN=C(N)N)C(=O)N[C@H](C(=O)N[C@H](C(=O)N[C@H](C(=O)N[C@@H](CCCN=C(N)N)C(=O)N[C@H](C(=O)N[C@@H](CCCN=C(N)N)C(=O)N[C@@H](CCCN=C(N)N)C(N)=O)C(C)C)[C@@H](C)CC)C(C)C)C(C)C [RKWRIVVIRVRR]

MIC [12]: ≥ 324 µM
MIC [13]: ≥ 324 µM
MIC [14]: > 324 µM
MIC [15]: > 324 µM
MIC [16]: ≥ 324 µM
SMILES: CC[C@H](C)[C@H](NC(=O)[C@H](CCC(=O)O)NC(=O)[C@H](CO)NC(=O)[C@H](CCCN=C(N)N)NC(=O)[C@@H](N)CO)C(=O)N[C@H](C(=O)N[C@@H](CCC(N)=O)C(=O)N[C@@H](CCCN=C(N)N)C(=O)N[C@@H](CC(C)C)C(=O)N[C@@H](Cc1ccccc1)C(N)=O)C(C)C [SRSEIVQRLF]

MIC [30]: 4 µM (≈ 8.59 µg/mL)
MIC [31]: ≥ 32 µM
MIC [27]: 8 µM (≈ 17.2 µg/mL)
MIC [32]: 2 µM (≈ 4.3 µg/mL)
MIC [33]: 2 µM (≈ 4.3 µg/mL)
MIC [34]: 8 µM (≈ 17.2 µg/mL)
MIC [35]: ≥ 32 µM
MIC [36]: 8 µM (≈ 17.2 µg/mL)
MIC [37]: 16 µM (≈ 34.4 µg/mL)
MIC [38]: 16 µM (≈ 34.4 µg/mL)
MIC [10]: 8 µM (≈ 17.2 µg/mL)
MIC [39]: ≥ 32 µM
SMILES: CC[C@H](C)[C@H](NC(=O)[C@H](CCCCN)NC(=O)[C@H](C)NC(=O)[C@H](C)NC(=O)[C@H](CC(C)C)NC(=O)[C@H](CCCN=C(N)N)NC(=O)[C@H](CC(C)C)NC(=O)[C@H](C)NC(=O)[C@H](CC(C)C)NC(=O)[C@H](CCCCN)NC(=O)[C@H](CC(C)C)NC(=O)[C@H](CCCCN)NC(=O)[C@H](CCCCN)NC(=O)[C@H](CCSC)NC(=O)[C@@H]1CCCN1)C(=O)N[C@@H](C)C(=O)N1CCC[C@H]1C(=O)N[C@H](C(=O)N[C@@H](Cc1c[nH]c2ccccc12)C(=O)O)C(C)C [PMKKLKLALRLAAKIAPVW]

More lines, now with the values behind:

SMILES: CC[C@H](C)[C@H](NC(=O)[C@H](C)NC(=O)[C@H](C)NC(=O)[C@@H]1CCCN1C(=O)[C@@H](NC(=O)[C@H](CC(C)C)NC(=O)[C@H](CCCCN)NC(=O)[C@H](CO)NC(=O)[C@H](C)NC(=O)[C@@H](NC(=O)[C@H](CCCCN)NC(=O)[C@H](Cc1ccccc1)NC(=O)[C@H](CC(C)C)NC(=O)[C@H](C)NC(=O)CNC(=O)[C@H](CC(C)C)NC(=O)[C@@H](N)Cc1ccccc1)C(C)C)C(C)C)C(=O)N[C@H]1CSSC[C@@H](C(=O)O)NC(=O)[C@H](CCCCN)NC(=O)[C@H](CCCCN)NC(=O)[C@H](CO)NC(=O)[C@H]([C@@H](C)CC)NC(=O)[C@H](CO)NC1=O [FLGALFKVASKLVPAAICSISKKC]
MIC [17]: 4 µM (≈ 9.97 µg/mL)
MIC [18]: ≥ 205 µM
MIC [19]: 12.8 µM (≈ 31.9 µg/mL)
MIC [20]: 8 µM (≈ 19.9 µg/mL)
MIC [21]: 32 µM (≈ 79.8 µg/mL)
MIC [22]: 51.3 µM (≈ 128 µg/mL)
MIC [23]: 2 µM (≈ 4.99 µg/mL)
MIC [24]: 4 µM (≈ 9.97 µg/mL)

SMILES: CC[C@H](C)[C@H](NC(=O)[C@H](CCCCN)NC(=O)[C@H](CCCN=C(N)N)NC(=O)[C@H](Cc1ccccc1)NC(=O)[C@H](CC(C)C)NC(=O)[C@H](CCCN=C(N)N)NC(=O)[C@@H](N)CCCCN)C(=O)N[C@@H](CC(C)C)C(=O)N[C@@H](CCCN=C(N)N)C(=O)N[C@@H](Cc1ccc(O)cc1)C(=O)N[C@@H](CC(C)C)C(N)=O [KRLFRKILRYL]
MIC [25]: 11.6 µM (≈ 17.5 µg/mL)
MIC [26]: 23.2 µM (≈ 35 µg/mL)
MIC [27]: 46.8 µM (≈ 70.5 µg/mL)
MIC [28]: 23.2 µM (≈ 35 µg/mL)
MIC [21]: 46.8 µM (≈ 70.5 µg/mL)
MIC [29]: ≥ 46.8 µM

SMILES: CC[C@H](C)[C@H](NC(=O)[C@H](CCC(=O)O)NC(=O)[C@H](Cc1ccc(O)cc1)NC(=O)[C@@H](N)CCCCN)C(=O)N[C@H](C(=O)N[C@H](C(=O)N[C@H](C(=O)N[C@@H](Cc1cnc[nH]1)C(=O)N[C@@H](CC(N)=O)C(=O)N[C@@H](CC(C)C)C(=O)N[C@@H](Cc1ccccc1)C(=O)N[C@@H](CCCN=C(N)N)C(=O)N[C@@H](CCCCN)C(=O)N[C@@H](CC(C)C)C(=O)N[C@H](C(=O)N[C@@H](Cc1cnc[nH]1)C(=O)N[C@@H](CCCN=C(N)N)C(=O)N[C@@H](CC(C)C)C(=O)N[C@@H](Cc1ccccc1)C(=O)N[C@@H](CCCN=C(N)N)C(=O)N[C@@H](CCCN=C(N)N)C(=O)N[C@@H](CC(N)=O)C(=O)N[C@@H](Cc1ccccc1)C(=O)NCC(=O)N[C@@H](Cc1ccc(O)cc1)C(=O)N[C@H](C(=O)N[C@@H](CC(C)C)C(=O)N[C@@H](CCCN=C(N)N)C(=O)O)[C@@H](C)O)[C@@H](C)O)[C@@H](C)CC)[C@@H](C)O)[C@@H](C)O [KYEITTIHNLFRKLTHRLFRRNFGYTLR]
MIC [40]: 25 µM and ≥ 50 µM
MIC [41]: 25 µM and ≥ 50 µM
MIC [27]: 10 µM (≈ 36 µg/mL)
MIC [14]: 3.54 µM (≈ 12.7 µg/mL)
MIC [42]: 10 µM and 25 µM
MIC [21]: 10 µM (≈ 36 µg/mL)
MIC [43]: 14.1 µM (≈ 50.8 µg/mL)
MIC [44]: 5 µM (≈ 18 µg/mL)
MIC [45]: 5 µM (≈ 18 µg/mL)
MIC [15]: 5 µM (≈ 18 µg/mL)
MIC [46]: 5 µM (≈ 18 µg/mL)
MIC [47]: 10 µM (≈ 36 µg/mL)
MIC [48]: 5 µM (≈ 18 µg/mL)
MIC [49]: 5 µM (≈ 18 µg/mL)
MIC [50]: 1 µM (≈ 3.6 µg/mL)

From DBAASP
